Ki, microsomal CLint and IC50 data for 32 compounds are collected here from ChEMBL document CHEMBL2163268, “Structure-based design of a novel series of potent, selective inhibitors of the class I phosphatidylinositol 3-kinases” (J Med Chem, 2012).

Series [1] concerns the target Phosphatidylinositol 4,5-bisphosphate 3-kinase catalytic subunit gamma isoform (Homo sapiens, UniProt P48736). Description: biochemical.
Description: Inhibition of human N-terminal poly-His tagged-PI3Kgamma expressed in Sf9 baculovirus system co-expressing p85alpha after 20 mins by AlphaScreen assay
The target of series [2] is T1, Phosphatidylinositol 4,5-bisphosphate 3-kinase catalytic subunit delta isoform (Homo sapiens, UniProt O00329).
T1 sequence (O00329 whole entry): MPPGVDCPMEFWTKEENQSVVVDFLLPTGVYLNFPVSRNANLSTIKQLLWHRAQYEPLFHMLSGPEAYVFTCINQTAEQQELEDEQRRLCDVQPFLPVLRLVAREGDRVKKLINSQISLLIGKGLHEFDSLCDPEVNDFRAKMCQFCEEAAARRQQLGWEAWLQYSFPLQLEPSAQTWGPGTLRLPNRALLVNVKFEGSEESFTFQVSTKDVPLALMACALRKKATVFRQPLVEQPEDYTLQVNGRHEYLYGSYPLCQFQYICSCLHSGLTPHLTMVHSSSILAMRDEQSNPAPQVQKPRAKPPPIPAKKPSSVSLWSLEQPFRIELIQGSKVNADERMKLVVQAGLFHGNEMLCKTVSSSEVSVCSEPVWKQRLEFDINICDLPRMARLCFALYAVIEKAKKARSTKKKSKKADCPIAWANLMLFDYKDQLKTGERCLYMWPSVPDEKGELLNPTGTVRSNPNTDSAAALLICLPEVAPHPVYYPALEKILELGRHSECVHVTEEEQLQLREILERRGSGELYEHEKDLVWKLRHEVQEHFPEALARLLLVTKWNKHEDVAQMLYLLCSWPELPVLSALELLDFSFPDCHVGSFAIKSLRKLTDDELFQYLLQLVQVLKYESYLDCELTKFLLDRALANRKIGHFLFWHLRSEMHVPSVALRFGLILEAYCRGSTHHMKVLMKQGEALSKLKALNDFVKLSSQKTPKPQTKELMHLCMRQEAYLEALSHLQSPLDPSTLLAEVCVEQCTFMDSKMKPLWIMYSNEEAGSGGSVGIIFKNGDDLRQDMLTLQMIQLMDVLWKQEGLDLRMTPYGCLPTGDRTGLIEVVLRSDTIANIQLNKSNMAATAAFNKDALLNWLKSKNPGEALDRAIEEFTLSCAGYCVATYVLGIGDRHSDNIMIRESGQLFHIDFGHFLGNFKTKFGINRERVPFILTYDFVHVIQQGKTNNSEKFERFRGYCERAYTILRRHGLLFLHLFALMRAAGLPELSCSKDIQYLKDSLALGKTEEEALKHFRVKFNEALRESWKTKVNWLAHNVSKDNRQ
Description: biochemical.
Description: Inhibition of human N-terminal poly-His tagged-PI3Kdelta expressed in Sf9 baculovirus system co-expressing p85alpha after 20 mins by AlphaScreen assay

A further series can be described thus: in vitro. To be noted: rat, liver microsomes. A general note: Liver microsomes are vesicles of endoplasmic reticulum, rich in cytochrome P450 enzymes.
The target in series [3] is Phosphatidylinositol 4,5-bisphosphate 3-kinase catalytic subunit alpha isoform (Homo sapiens, UniProt P42336). Description: biochemical.
Phosphatidylinositol 4,5-bisphosphate 3-kinase catalytic subunit alpha isoform, sequence (P42336 whole entry, canonical isoform): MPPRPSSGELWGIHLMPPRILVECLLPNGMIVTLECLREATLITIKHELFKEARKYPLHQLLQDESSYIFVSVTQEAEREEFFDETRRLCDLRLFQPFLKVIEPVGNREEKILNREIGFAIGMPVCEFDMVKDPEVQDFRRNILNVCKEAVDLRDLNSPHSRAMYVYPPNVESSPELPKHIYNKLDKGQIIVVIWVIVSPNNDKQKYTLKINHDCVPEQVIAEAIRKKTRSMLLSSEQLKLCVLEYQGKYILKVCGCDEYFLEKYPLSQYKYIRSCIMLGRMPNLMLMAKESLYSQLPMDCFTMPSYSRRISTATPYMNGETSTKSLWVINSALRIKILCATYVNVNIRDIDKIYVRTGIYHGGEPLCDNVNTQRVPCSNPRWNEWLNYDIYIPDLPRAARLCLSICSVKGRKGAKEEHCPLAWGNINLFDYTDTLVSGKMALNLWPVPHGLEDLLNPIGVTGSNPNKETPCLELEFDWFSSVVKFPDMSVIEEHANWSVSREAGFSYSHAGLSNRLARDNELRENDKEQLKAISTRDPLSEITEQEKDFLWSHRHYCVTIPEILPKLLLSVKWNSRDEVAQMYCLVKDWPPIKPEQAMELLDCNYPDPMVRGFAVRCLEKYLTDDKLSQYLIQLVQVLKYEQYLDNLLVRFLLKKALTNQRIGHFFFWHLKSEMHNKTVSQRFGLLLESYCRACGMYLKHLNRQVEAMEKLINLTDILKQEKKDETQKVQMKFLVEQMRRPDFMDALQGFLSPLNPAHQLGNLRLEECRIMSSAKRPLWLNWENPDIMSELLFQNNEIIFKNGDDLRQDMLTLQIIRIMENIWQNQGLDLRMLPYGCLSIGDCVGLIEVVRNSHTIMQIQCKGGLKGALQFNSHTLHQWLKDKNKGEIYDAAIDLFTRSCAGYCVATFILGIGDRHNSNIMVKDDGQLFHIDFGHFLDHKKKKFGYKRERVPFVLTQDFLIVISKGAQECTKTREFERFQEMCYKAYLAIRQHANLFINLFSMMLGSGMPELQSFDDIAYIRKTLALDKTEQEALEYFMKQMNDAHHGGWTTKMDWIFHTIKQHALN
Description: Inhibition of human N-terminal poly-His tagged-PI3Kalpha expressed in Sf9 baculovirus system co-expressing p85alpha after 20 mins by AlphaScreen assay
The target of series [4] is Serine/threonine-protein kinase mTOR (Homo sapiens, UniProt P42345).
Description: Inhibition of recombinant GST-tagged mTOR-mediated 4EBP1 phosphorylation after 90 mins by FRET assay
Series [5] concerns the target Phosphatidylinositol 4,5-bisphosphate 3-kinase catalytic subunit beta isoform (Homo sapiens, UniProt P42338). Description: biochemical.
Description: Inhibition of human N-terminal poly-His tagged-PI3Kbeta expressed in Sf9 baculovirus system co-expressing p85alpha after 20 mins by AlphaScreen assay

Phosphatidylinositol 4,5-bisphosphate 3-kinase catalytic subunit gamma isoform, sequence (P48736 whole entry, canonical isoform): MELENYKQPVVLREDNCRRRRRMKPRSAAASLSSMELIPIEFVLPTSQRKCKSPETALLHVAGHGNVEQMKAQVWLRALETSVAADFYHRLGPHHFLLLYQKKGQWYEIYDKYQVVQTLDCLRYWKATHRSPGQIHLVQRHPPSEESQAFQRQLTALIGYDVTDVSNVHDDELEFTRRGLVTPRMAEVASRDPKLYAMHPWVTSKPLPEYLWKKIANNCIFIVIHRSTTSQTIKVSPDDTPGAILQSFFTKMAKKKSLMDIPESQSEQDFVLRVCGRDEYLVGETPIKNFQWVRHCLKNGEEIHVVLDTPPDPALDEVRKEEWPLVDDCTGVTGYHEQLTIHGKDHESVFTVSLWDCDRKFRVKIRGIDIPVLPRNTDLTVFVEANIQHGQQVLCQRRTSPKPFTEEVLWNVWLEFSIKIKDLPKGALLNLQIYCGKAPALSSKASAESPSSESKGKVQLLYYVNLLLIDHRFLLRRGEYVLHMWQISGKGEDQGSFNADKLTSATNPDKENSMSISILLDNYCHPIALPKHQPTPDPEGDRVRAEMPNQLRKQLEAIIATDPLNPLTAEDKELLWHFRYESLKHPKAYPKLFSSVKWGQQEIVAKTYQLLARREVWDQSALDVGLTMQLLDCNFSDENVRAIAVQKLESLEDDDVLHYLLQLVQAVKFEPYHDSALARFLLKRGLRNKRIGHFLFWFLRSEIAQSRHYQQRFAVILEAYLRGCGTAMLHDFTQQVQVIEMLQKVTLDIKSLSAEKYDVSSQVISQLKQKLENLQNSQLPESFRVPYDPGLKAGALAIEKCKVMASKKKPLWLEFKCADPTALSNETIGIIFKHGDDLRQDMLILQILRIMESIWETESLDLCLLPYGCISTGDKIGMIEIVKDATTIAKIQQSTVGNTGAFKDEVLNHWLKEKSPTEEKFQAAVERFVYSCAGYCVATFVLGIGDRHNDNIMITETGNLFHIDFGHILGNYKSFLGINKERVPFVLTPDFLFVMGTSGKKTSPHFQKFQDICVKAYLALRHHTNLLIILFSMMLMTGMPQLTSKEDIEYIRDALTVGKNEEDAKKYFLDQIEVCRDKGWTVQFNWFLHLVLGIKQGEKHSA
Phosphatidylinositol 4,5-bisphosphate 3-kinase catalytic subunit beta isoform, sequence (P42338 whole entry, canonical isoform): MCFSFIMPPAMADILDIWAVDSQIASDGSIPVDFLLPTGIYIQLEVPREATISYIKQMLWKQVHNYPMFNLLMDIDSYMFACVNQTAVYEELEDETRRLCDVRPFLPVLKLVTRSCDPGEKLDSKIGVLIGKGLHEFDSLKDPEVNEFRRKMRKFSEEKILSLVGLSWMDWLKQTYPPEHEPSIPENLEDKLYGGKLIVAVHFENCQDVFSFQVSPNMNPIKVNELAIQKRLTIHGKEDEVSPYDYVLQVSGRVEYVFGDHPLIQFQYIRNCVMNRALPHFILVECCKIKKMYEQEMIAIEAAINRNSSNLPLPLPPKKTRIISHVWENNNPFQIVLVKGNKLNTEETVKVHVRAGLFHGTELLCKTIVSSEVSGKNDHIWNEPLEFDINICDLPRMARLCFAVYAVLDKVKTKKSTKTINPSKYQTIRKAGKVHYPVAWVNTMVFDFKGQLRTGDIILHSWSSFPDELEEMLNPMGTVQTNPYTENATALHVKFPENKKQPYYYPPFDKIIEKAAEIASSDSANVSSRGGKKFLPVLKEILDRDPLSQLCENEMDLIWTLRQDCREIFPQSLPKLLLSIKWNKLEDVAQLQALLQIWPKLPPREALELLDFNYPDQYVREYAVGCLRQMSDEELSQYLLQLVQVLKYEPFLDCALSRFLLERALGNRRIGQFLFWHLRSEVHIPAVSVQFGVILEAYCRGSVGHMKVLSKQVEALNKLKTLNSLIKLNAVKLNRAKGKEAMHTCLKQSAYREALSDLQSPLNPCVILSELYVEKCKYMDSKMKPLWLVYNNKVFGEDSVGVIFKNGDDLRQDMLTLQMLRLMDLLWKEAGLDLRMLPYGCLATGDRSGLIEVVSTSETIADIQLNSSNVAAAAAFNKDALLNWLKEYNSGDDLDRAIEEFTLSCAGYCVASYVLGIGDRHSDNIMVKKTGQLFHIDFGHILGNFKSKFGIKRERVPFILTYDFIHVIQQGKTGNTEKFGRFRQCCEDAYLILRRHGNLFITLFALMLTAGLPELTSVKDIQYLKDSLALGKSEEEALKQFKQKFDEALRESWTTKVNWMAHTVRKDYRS
Description for in vitro: Intrinsic clearance in rat liver microsomes

Broadly, the Ki is the dissociation constant of the complex between target and ligand, obtained from inhibition or displacement. Read a high Ki as lower affinity. By microsomal CLint is commonly meant the rate of metabolic loss divided by the concentration. Lower therefore signals greater metabolic stability. What is called IC50 is the concentration needed to halve the response being measured. Consider `COCc1cnc(Nc2ccc(OC)nc2)c(-c2nc(C)nc(N)n2)c1`, for which the Ki was 9 nM in series [1], 10 nM in series [2], 49 nM in series [3] and 20 nM in series [5]. In “in vitro”, this compound gave a microsomal CLint of 58 µL/min/mg. For the same compound, the IC50 in series [4] was over 10000 nM.
Turning to `COc1ccc(Nc2ncc(Cc3ccccc3)cc2-c2nc(C)nc(N)n2)cn1`, the Ki in series [1] was found to be 11 nM; in series [2], 15 nM; in series [3], 59 nM; in series [5], 48 nM. This compound displayed a microsomal CLint in the series “in vitro” of 62 µL/min/mg.
`COc1ccc(Nc2ncc(C3=CCOCC3)cc2-c2nc(C)nc(N)n2)cn1`: the Ki in series [1] was 2 nM; in series [2] it was 2 nM; in series [5], 3 nM. For the same compound, in “in vitro”, the microsomal CLint worked out at 83 µL/min/mg.
As for `COc1cnc(Nc2ccc(OC)nc2)c(-c2nc(C)nc(N)n2)c1`, the results for the inhibition constant (Ki) in series [1], in series [2] and in series [5] were 9 nM, 7 nM and 15 nM, respectively. Moreover, the microsomal CLint in the series “in vitro” worked out at 86 µL/min/mg.
On to `COc1ccc(Nc2ncc(Cl)cc2-c2nc(C)nc(N)n2)cn1`, for which the Ki in series [1] was 40 nM; in series [2] it was 39 nM; in series [3] it was 290 nM; in series [5] it was 38 nM. This compound also yielded a microsomal CLint in “in vitro” of 58 µL/min/mg.
Take `COc1ccc(Nc2ncc(CN3CCC(O)CC3)cc2-c2nc(C)nc(N)n2)cn1`: the Ki in series [1] was 110 nM; in series [2] it was 63 nM; in series [5], 41 nM. The same compound registered a microsomal CLint in the series “in vitro” of 23 µL/min/mg.
Consider `COc1ccc(Nc2ncc(CN3CCN(C(=O)N(C)C)CC3)cc2-c2nc(C)nc(N)n2)cn1`, for which the inhibitory constant (Ki) in series [1] was found to be 8 nM; in series [2] it was 3 nM; in series [3], 84 nM; in series [5] it was 16 nM. In “in vitro”, the microsomal CLint was 17 µL/min/mg. Further, in series [4], the midpoint of inhibition, the IC50, lay at 1400 nM.
Regarding `COc1ccc(Nc2ncccc2-c2ncnc3nc[nH]c23)cn1`, the inhibition constant (Ki) was 1100 nM in series [1], 5700 nM in series [2], 8300 nM in series [3] and over 10000 nM in series [5]. Moreover, the microsomal CLint in “in vitro” was found to be 109 µL/min/mg.
Turning to `COc1ccc(Nc2ncc(CN3CCN(S(=O)(=O)N(C)C)CC3)cc2-c2nc(C)nc(N)n2)cn1`, the figures for the Ki in series [1], in series [2] and in series [5] were 9 nM, 6 nM and 7 nM, respectively. For the same compound, the microsomal CLint in the series “in vitro” is 73 µL/min/mg.
Consider `c1cnc(Nc2cccc3n[nH]cc23)c(-c2ncnc3nc[nH]c23)c1`, for which the inhibition constant (Ki) is over 10000 nM in series [2], over 10000 nM in series [3] and 9700 nM in series [5]. For the same compound, the microsomal CLint in the series “in vitro” was determined as 115 µL/min/mg. The same compound came in with a half-maximal inhibitory concentration (IC50) in series [4] of over 10000 nM.
`COc1ccc(Nc2cccnc2-c2nc(C)nc(N)n2)cn1`: the Ki in series [1] was determined as 480 nM; in series [2], 910 nM; in series [3], 1300 nM; in series [5] it was 610 nM. This compound gave an intrinsic metabolic clearance (microsomal CLint) in “in vitro” of 96 µL/min/mg. The concentration for half-maximal inhibition (IC50) in series [4] was over 10000 nM.
For `COc1ccc(Nc2ncc(-c3ccc(C)nc3)cc2-c2nc(C)nc(N)n2)cn1`, the Ki in series [2] came to 7 nM; in series [5], 89 nM. In “in vitro”, the microsomal CLint was 25 µL/min/mg.
`COc1ccc(Nc2ncc(CN3CCNCC3)cc2-c2nc(C)nc(N)n2)cn1`: the Ki was determined as 200 nM in series [1], 27 nM in series [2] and 17 nM in series [5]. The compound further showed a microsomal CLint in the series “in vitro” of 35 µL/min/mg.
On to `COc1ccc(Nc2ncc(CN3CCCC3)cc2-c2nc(C)nc(N)n2)cn1`, for which the results for the Ki in series [1], in series [2] and in series [5] were 210 nM, 60 nM and 65 nM, respectively. The microsomal CLint in the series “in vitro” came to 37 µL/min/mg.
`COCCNCc1cnc(Nc2ccc(OC)nc2)c(-c2nc(C)nc(N)n2)c1`: the Ki was 99 nM in series [1], 30 nM in series [2] and 67 nM in series [5]. In addition, in “in vitro”, the microsomal CLint was determined as 31 µL/min/mg.
For `COc1ccc(Nc2ncc(CN3CCCCC3)cc2-c2nc(C)nc(N)n2)cn1`, the Ki in series [1] turned out to be 80 nM; in series [2], 19 nM; in series [5] it was 11 nM. The microsomal CLint in the series “in vitro” is 51 µL/min/mg.
Turning to `COc1ccc(Nc2ncc(-c3cnn(C)c3)cc2-c2nc(C)nc(N)n2)cn1`, the Ki in series [1], in series [2] and in series [5] was 6 nM in each case. For the same compound, the intrinsic metabolic clearance (microsomal CLint) in the series “in vitro” worked out at 24 µL/min/mg.
Turning to `COc1ccc(Nc2ncc(Br)cc2-c2nc(C)nc(N)n2)cn1`, the Ki came to 22 nM in series [1], 92 nM in series [2] and 75 nM in series [5]. For the same compound, the microsomal CLint in “in vitro” amounted to 111 µL/min/mg.
In the case of `COc1ccc(Nc2ncc(CO)cc2-c2nc(C)nc(N)n2)cn1`, the values for the Ki in series [1], in series [2] and in series [5] were 24 nM, 20 nM and 56 nM, respectively. Moreover, in the series “in vitro”, the microsomal CLint was found to be 43 µL/min/mg.
On to `COc1ccc(Nc2ncc(C)cc2-c2nc(C)nc(N)n2)cn1`, for which the Ki amounted to 54 nM in series [1], 110 nM in series [2] and 86 nM in series [5]. In the series “in vitro”, the microsomal CLint was determined as 243 µL/min/mg. Further, in series [4], the IC50 is over 10000 nM.
`COc1ccc(Nc2ncc(CN3CCOCC3)cc2-c2nc(C)nc(N)n2)cn1`: the Ki amounted to 17 nM in series [1], 18 nM in series [2] and 7 nM in series [5]. Also, in “in vitro”, the microsomal CLint was found to be 31 µL/min/mg.
On to `COc1ccc(Nc2ncc(CN3CCS(=O)(=O)CC3)cc2-c2nc(C)nc(N)n2)cn1`, for which the Ki in series [1] stood at 30 nM; in series [2], 13 nM; in series [3], 73 nM; in series [5], 13 nM. Also, the microsomal CLint in the series “in vitro” was determined as 21 µL/min/mg. The compound also returned an IC50 in series [4] of over 10000 nM.
Take `Cc1nc(-c2cccnc2Nc2cccc3[nH]ccc23)c2[nH]cnc2n1`: the Ki in series [1] amounted to 23 nM; in series [2], 360 nM; in series [5], 130 nM. For the same compound, the microsomal CLint in “in vitro” is 90 µL/min/mg. The same compound returned an IC50 in series [4] of 560 nM.
Regarding `COc1ccc(Nc2ncc(N3CCN(C)CC3)cc2-c2nc(C)nc(N)n2)cn1`, the Ki in series [1] was found to be 21 nM; in series [2], 16 nM; in series [3] it was 39 nM; in series [5] it was 7 nM. Further, the microsomal CLint in the series “in vitro” came to 23 µL/min/mg. Besides, in series [4], half-maximal inhibition (IC50) required 1400 nM.
Consider `COc1ccc(Nc2ncc(N3CCOCC3)cc2-c2nc(C)nc(N)n2)cn1`, for which the Ki in series [1] was 4 nM; in series [2], 4 nM; in series [3] it was 22 nM; in series [5] it was 9 nM. The compound further returned a microsomal CLint in the series “in vitro” of 67 µL/min/mg. In series [4], this compound displayed an IC50 of over 10000 nM.
With `COc1ccc(Nc2ncc(CN3CCN(C)CC3)cc2-c2nc(C)nc(N)n2)cn1`, the Ki in series [1] was 130 nM; in series [2] it was 34 nM; in series [5], 44 nM. This compound showed a microsomal CLint in “in vitro” of 48 µL/min/mg.
With `COc1ccc(Nc2ncc(CN3CC[C@@H](CO)C3)cc2-c2nc(C)nc(N)n2)cn1`, the Ki turned out to be 100 nM in series [1], 51 nM in series [2] and 59 nM in series [5]. This compound showed an intrinsic clearance (microsomal CLint) in “in vitro” of 20 µL/min/mg.
Regarding `COc1ccc(Nc2cnccc2-c2nc(C)nc(N)n2)cn1`, the Ki in series [1] worked out at 690 nM; in series [2] it was 240 nM; in series [3], 620 nM; in series [5], 320 nM. Moreover, the microsomal CLint in the series “in vitro” is 133 µL/min/mg.
As to `COC(=O)N1CCN(Cc2cnc(Nc3ccc(OC)nc3)c(-c3nc(C)nc(N)n3)c2)CC1`, the Ki in series [1] turned out to be 18 nM; in series [2] it was 6 nM; in series [3] it was 94 nM; in series [5] it was 18 nM. For the same compound, the intrinsic metabolic clearance (microsomal CLint) in “in vitro” was 20 µL/min/mg. For the same compound, in series [4], 3700 nM corresponded to half-maximal inhibition (IC50).
For the compound `COc1ccc(Nc2ncc(CN3CCC3)cc2-c2nc(C)nc(N)n2)cn1`, the Ki in series [1] was 140 nM; in series [2], 50 nM; in series [5], 22 nM. Besides, the microsomal CLint in the series “in vitro” is 37 µL/min/mg.
Consider `COc1ccc(Nc2ncc(CN3CCCN(S(C)(=O)=O)CC3)cc2-c2nc(C)nc(N)n2)cn1`, for which the Ki in series [1] is 46 nM; in series [2] it was 21 nM; in series [3], 33 nM; in series [5] it was 61 nM. In “in vitro”, this compound came in with a microsomal CLint of 242 µL/min/mg. The half-inhibitory concentration (IC50) in series [4] was over 10000 nM.
In the case of `COc1ccc(Nc2ncc(CN3CCC(S(C)(=O)=O)C3)cc2-c2nc(C)nc(N)n2)cn1` (racemic), the Ki in series [1] worked out at 5 nM; in series [2], 3 nM; in series [5] it was 5 nM. In “in vitro”, this compound returned a microsomal CLint of 23 µL/min/mg.
